# Source: patent US5750578A, “Use of betulin and analogs thereof to treat herpesvirus infection” (priority 1997, dated 1998)
# “Also recorded” adds a separate entry of the source.
# Columns and labels:
# SK-N-MC cells = assay: Cytotoxicity test and drug controls, SK-N-MC cells; format: cell-based, human; set-up: Betulin control (monolayer rating) / Acyclovir control (monolayer rating): key to the marks not given beside the values
# Vero cells = assay: Cytotoxicity test and drug controls, Vero cells; set-up: Betulin control (monolayer rating) / Acyclovir control (monolayer rating): key to the marks not given beside the values
# Description: Human epithelial type 2 (HEp2), African green monkey kidney (Vero) and human neuroblastoma (SK-N-MC) cells were purchased from American Type Culture Collection (ATCC-Rockville, Md.). These cells were grown at 37° C. in the presence of 5% carbon dioxide tension in minimal essential medium (MEM-Eagle) containing 0.1 mM of nonessential amino acids, and Earl's BSS 90% supplemented with 5% Newborn Calf Serum (NCS) and 1% penicillin/streptomycine sulfate. For SK-N-MC cells, 1.0 mM sodium pyruvate, and 10% NCS was used. The stock cells were prepared and stored at -80° C. in 5% dimethyl sulfoxide (DMSO).
# A betulin solution containing 0.5 mg of betulin/1000 ml of water was filtered using a […] pore size filter (Gelman) attached to a 35 ml volume syringe to remove bacteria and other larger organisms. This sterile sample was further diluted to 1:2, 1:4, and 1:8 using distilled, deionized sterile water.
# The cytotoxic effect of betulin was observed by using a 24-well microtiter plate. Each well contained 1 ml of MEM with supplements containing 1200 HEp2, Vero or SK-N-MC cells. The plates were incubated for 48 hours at 37° C. in 5% carbon dioxide tension and followed by replacement of the medium with 1.0 ml of MEM with specific supplements.
# A 1.0 ml of sterile betulin solution in duplicate at varying two-fold dilution were placed into labeled wells. No betulin solution was placed in the control wells containing a monolayer of cells. These microtiter plates were incubated at 37° C. and 5% carbon dioxide tension for 48 hours and rated as follows.
# Similarly, a plus 2 (++) for 75% monolayer, a plus one (+) for 50% monolayer, and a plus minus (±) for 25% monolayer development. A minus rating means that most of the cells are abnormal, whereas a double minus (--) rating was given to wells containing all abnormal cells due to cytotoxic effect of betulin solution. Noncytotoxic dilutions and the highest dilution of betulin showing cytotoxicity, if any, were used in the protection tests. […]
# HSV-1 [1] = assay: Cell protection test, HSV-1 in Vero cells; format: cell-based, herpes simplex virus type 1 (KOS, patent strain); settings: duplicate wells, 72 hours
# Description: (§1) Two different HSV-1 and HSV-2 strains were used: HSV-1 (KOS), HSV-2 (MS). Also, HSV-1 (patent strain) and HSV-2 (patent strain) were purchased from ATCC and propagated in HEp2 cell monolayers. Virus stocks were prepared by adsorbing 1 ml of virus suspension containing 1 ×10^5 virus particles for one hour in HEp2 cells at 37° C. in 5% carbon dioxide tension. This stock was incubated under similar conditions for 48 hours after adding 15 ml of MEM containing the usual supplements.
# (§2) Infected cells were harvested and disrupted through three cycles of freezing and thawing. The contents in the flasks were pooled, and the supernatant virus particles were collected by centrifugation at 3000 rpm for 5 minutes. The virus suspension dispensed in 2.5 ml aliquot each and […] using both microtitration and plaque counting methods. HSV-1 and HSV-2 containing 5×10^4 PFU/ml and 5.25×10^4 PFU/ml respectively were stored at -80° C. until needed.
# (§3) A plus 3 (+++) was given to the wells in which betulin solutions protected the cells without any cytopathic effect as compared to cell and betulin control.
# HSV-2 [2] = assay: Cell protection test, HSV-2 in HEp2 cells; format: cell-based, herpes simplex virus type 2 (MS, patent strain); settings: duplicate wells, 72 hours
# Description: as §1, §2, §3
# HSV-1 [3] = assay: Cell protection test, HSV-1 in HEp2 cells; format: cell-based, herpes simplex virus type 1 (KOS, patent strain); settings: duplicate wells, 72 hours
# Description: as §1, §2, §3
# HSV-1 [4] = assay: Cell protection test, HSV-1 in SK-N-MC cells; format: cell-based, herpes simplex virus type 1 (KOS, patent strain); settings: duplicate wells, 72 hours
# Description: as §1, §2, §3
# HEp2 cells = assay: Cytotoxicity test and drug controls, HEp2 cells; format: cell-based, human; set-up: Betulin control (monolayer rating) / Acyclovir control (monolayer rating): key to the marks not given beside the values
# HSV-1 and HSV-2 = assay: Cell protection tests, overall, HSV-1 and HSV-2 in three cell lines; format: cell-based
# Description: as §1, §2, §3
# HSV-2 [5] = assay: Cell protection test, HSV-2 in SK-N-MC cells; format: cell-based, herpes simplex virus type 2 (MS, patent strain); settings: duplicate wells, 72 hours
# Description: as §1, §2, §3
# HSV-2 [6] = assay: Cell protection test, HSV-2 in Vero cells; format: cell-based, herpes simplex virus type 2 (MS, patent strain); settings: acyclovir 25 mg; duplicate wells; 72 hours
# Description: as §1, §2, §3
# [7] = betulin 0.5 mg/l and two-fold dilutions, 48 hours
# [8] = acyclovir 50 mg/l and two-fold serial dilution
smiles,measurement,setting,value
"C=C(C)[C@@H]1CC[C@]2(CO)CC[C@]3(C)[C@H](CC[C@@H]4[C@@]5(C)CC[C@H](O)C(C)(C)[C@@H]5CC[C@]43C)[C@@H]12 [Betulin, lup-20(29)-ene-3β, 28-diol]",Cytotoxic effect,SK-N-MC cells; [7],not toxic; also recorded: did not show any cytotoxic effect
same,Betulin control (monolayer rating),"SK-N-MC cells; control wells, highest concentration of betulin, Tables 5 and 6",+++
same,Cytotoxic effect,Vero cells; [7],not toxic; also recorded: did not show any cytotoxic effect
same,Betulin control (monolayer rating),"Vero cells; control wells, highest concentration of betulin, Tables 3 and 4",+++
same,Effectiveness of betulin against HSV-1 in vero cells,HSV-1 [1]; betulin 0.5 mg,++±
same,Effectiveness of betulin against HSV-2 in HEp2 cells,HSV-2 [2]; betulin 0.25 mg,++±
same,Effectiveness of betulin against HSV-1 in HEp2 cells,HSV-1 [3]; betulin 0.5 mg [mg/l],++±
same,Effectiveness of betulin against HSV-1 in SK-N-MC cells,HSV-1 [4]; betulin 0.5 mg,++±
same,Cytotoxic effect,HEp2 cells; [7],not toxic; also recorded: did not show any cytotoxic effect
same,Betulin control (monolayer rating),"HEp2 cells; control wells, highest concentration of betulin, Tables 1 and 2",+++
same,Effectiveness in protecting indicator cell monolayers compared to acyclovir,"HSV-1 and HSV-2; 0.5 mg/l betulin vs 25 mg/l ACV, three cell types",as effective as 25 mg/l of ACV
same,Spread of virus from the infected cells,HSV-1 and HSV-2; after 72 hours,did not spread from the infected cells
same,Effectiveness against HSV-2 compared to HSV-1,HSV-1 and HSV-2; three different cell lines,slightly more effective in protecting all three different cell lines against HSV-2 strains than HSV-1 strains; also recorded: more effective against HSV-2 compared to HSV-1
same,Effectiveness of betulin against HSV-2 in SK-N-MC cells,HSV-2 [5]; betulin 0.5 mg,++±
"Nc1nc2c(ncn2COCCO)c(=O)[nH]1 [Acyclovir, reference compound]",Acyclovir control (monolayer rating),SK-N-MC cells,+++
same,Cytotoxic effect,SK-N-MC cells; [8],no cytotoxic effect was observed
same,Effectiveness against HSV-2 in vero cells (acyclovir),HSV-2 [6],++±
same,Acyclovir control (monolayer rating),Vero cells,+++
same,Effectiveness against HSV-1 in vero cells (acyclovir),HSV-1 [1]; acyclovir 25 mg,++±
same,Effectiveness against HSV-2 in HEp2 cells (acyclovir),HSV-2 [2]; acyclovir 25 mg,++±
same,Effectiveness against HSV-1 in HEp2 cells (acyclovir),HSV-1 [3]; acyclovir 25 mg [mg/l],++±
same,Effectiveness against HSV-1 in SK-N-MC cells (acyclovir),HSV-1 [4]; acyclovir 25 mg,++±
same,Acyclovir control (monolayer rating),HEp2 cells,+++
same,Cytotoxic effect,HEp2 cells; [8],no cytotoxic effect was observed
same,Effectiveness against HSV-2 in SK-N-MC cells (acyclovir),HSV-2 [5]; acyclovir 25 mg,++±
